{"source": "patent US20040029736A1", "about": "“Promoting early establishment of potato crops by ethylene inhibitors” (Valent BioSciences Corporation, priority 2002, published 2004)", "key": {"potato tubers [1]": {"tested_on": "potato tubers", "conditions": "cited from earlier work; for release from dormancy and sprouting of potato tubers: literature (Alam 1994; Minato 1979; Rama 1981; Rylski 1974)"}, "potato tubers [2]": {"tested_on": "potato tubers", "assay": "Example 5: sprout number and emergence from soil of MCP gas-treated potato tubers at 10° C. (Table 5)", "type": "in vivo, Solanum tuberosum Linn", "conditions": "for number of emerged sprouts per potato tuber: 50 ppm MCP; for % Emergence / Sprouts/Tuber: 50 ppm MCP for 20 hr, in soil", "procedure": "Potato tubers were treated with 50 ppm MCP in a closed plastic drum (30 gallon) for 20 hr and untreated potatoes served as the control. Each treatment consisted of 9 potato tubers. The treated potatoes were then planted in soil in plastic trays and placed in a ventilated chamber at 10° C. […]"}, "potato microtubers": {"tested_on": "potato microtubers", "conditions": "potato explants treated during initiation and growth phases of microtuber development; Suttle 1998; cited from earlier work"}, "potato tubers [3]": {"tested_on": "potato tubers", "assay": "Example 4: sprout number and length of potato tubers dipped in AVG or ethephon (Table 4)", "type": "in vivo, Solanum tuberosum Linn", "conditions": "1000 ppm ethephon dip; for Sprout length (cm) / Sprouts/potato: 20° C., in soil, dark chamber, 21 days after treatment", "procedure": "Potato tubers were dipped in 2000 ppm AVG or 1000 ppm ethephon solution and water-dipped potatoes served as the control. Each treatment consisted of 9 potato tubers. The treated potatoes were then put in plastic trays and placed in dark ventilated chamber at 20° C. […]"}, "[4]": {"conditions": "Gold Rush, 15 days after treatment"}, "[5]": {"conditions": "Gold Rush, 18 days after treatment"}, "[6]": {"conditions": "Norkotah, 15 days after treatment"}, "[7]": {"conditions": "Norkotah, 18 days after treatment"}, "[8]": {"conditions": "Russet Burbank, 15 days after treatment"}, "[9]": {"conditions": "Russet Burbank, 18 days after treatment"}, "[10]": {"conditions": "Superior, 15 days after treatment"}, "[11]": {"conditions": "Superior, 18 days after treatment"}}, "note": "Read-outs that look alike come from different tables or passages of the source."}
{"smiles": "C=C", "note": "[ethylene]", "values": [{"measurement": "release from dormancy and sprouting of potato tubers", "setting": "potato tubers [1]", "result": "enhances release from dormancy and increases sprouting"}, {"measurement": "sprout elongation", "setting": "potato tubers [1]; literature (Minato 1979; Rylski 1974)", "result": "inhibit sprout elongation"}]}
{"smiles": "CC1=CC1", "note": "[MCP, 1-methylcyclopropene]", "values": [{"measurement": "number of emerged sprouts per potato tuber", "setting": "potato tubers [2]; Russet Burbank, Norkotah, and Gold Rush", "result": "increased"}, {"measurement": "number of emerged sprouts per potato tuber", "setting": "potato tubers [2]; Superior", "result": "not"}, {"measurement": "% Emergence", "setting": "potato tubers [2]; [4]", "result": 44, "unit": "%"}, {"measurement": "Sprouts/Tuber", "setting": "potato tubers [2]; [4]", "result": 0.8, "unit": "B"}, {"measurement": "% Emergence", "setting": "potato tubers [2]; [5]", "result": 56, "unit": "%"}, {"measurement": "Sprouts/Tuber", "setting": "potato tubers [2]; [5]", "result": 1.3, "unit": "B"}, {"measurement": "% Emergence", "setting": "potato tubers [2]; [6]", "result": 78, "unit": "%"}, {"measurement": "Sprouts/Tuber", "setting": "potato tubers [2]; [6]", "result": 1.7, "unit": "B"}, {"measurement": "% Emergence", "setting": "potato tubers [2]; [7]", "result": 78, "unit": "%"}, {"measurement": "Sprouts/Tuber", "setting": "potato tubers [2]; [7]", "result": 2.0, "unit": "B"}, {"measurement": "% Emergence", "setting": "potato tubers [2]; [8]", "result": 100, "unit": "%"}, {"measurement": "Sprouts/Tuber", "setting": "potato tubers [2]; [8]", "result": 2.4, "unit": "B"}, {"measurement": "% Emergence", "setting": "potato tubers [2]; [9]", "result": 100, "unit": "%"}, {"measurement": "Sprouts/Tuber", "setting": "potato tubers [2]; [9]", "result": 2.9, "unit": "B"}, {"measurement": "% Emergence", "setting": "potato tubers [2]; [10]", "result": 89, "unit": "%"}, {"measurement": "Sprouts/Tuber", "setting": "potato tubers [2]; [10]", "result": 1.2, "unit": "A"}, {"measurement": "% Emergence", "setting": "potato tubers [2]; [11]", "result": 89, "unit": "%"}, {"measurement": "Sprouts/Tuber", "setting": "potato tubers [2]; [11]", "result": 1.6, "unit": "A"}]}
{"smiles": "C1=CC2C=CC1C2", "note": "[2,5-norbomadiene]", "values": [{"measurement": "sprouting of microtubers", "setting": "potato microtubers", "result": "caused precocious sprouting"}]}
{"smiles": "O=[N+]([O-])[O-].[Ag+]", "note": "[silver nitrate]", "values": [{"measurement": "sprouting of microtubers", "setting": "potato microtubers", "result": "caused precocious sprouting"}]}
{"smiles": "O=P(O)(O)CCCl", "note": "[ethephon, 2-chloroethyl phosphonic acid]", "values": [{"measurement": "sprouting", "setting": "potato tubers [3]; Russet Burbank and Superior", "result": "stimulate sprouting"}, {"measurement": "sprout elongation", "setting": "potato tubers [3]; potato tubers", "result": "did not"}, {"measurement": "Sprout length (cm)", "setting": "potato tubers [3]; Russet Burbank", "result": 15.6, "unit": "A cm"}, {"measurement": "Sprouts/potato", "setting": "potato tubers [3]; Russet Burbank", "result": 10.8, "unit": "B"}, {"measurement": "Sprout length (cm)", "setting": "potato tubers [3]; Superior", "result": 16.8, "unit": "AB cm"}, {"measurement": "Sprouts/potato", "setting": "potato tubers [3]; Superior", "result": 9.9, "unit": "B"}, {"measurement": "release from dormancy and sprouting of potato tubers", "setting": "potato tubers [1]", "result": "enhances release from dormancy and increases sprouting"}]}
